Patent US11479556B1, “Bifunctional compounds for degrading BTK via ubiquitin proteosome pathway” (NURIX THERAPEUTICS, INC., priority 2018, dated 2022)

Assays:
[1] = molecular target: T1, BTK (Homo sapiens, UniProt Q06187); assay: Cellular BTK HTRF assay (BTK degradation) in TMD8 cells; assay type: cell-based; conditions: four hours incubation, Total-BTK HTRF relative to DMSO-treated cells
T1 construct: endogenous in cells; host or cells: TMD8 cells
Summary of the method: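 TMD8 cells were treated with compounds (final DMSO <0.200) for four hours at 37° C, 5% CO2, then lysed for 30 minutes. Total BTK was measured by two-antibody HTRF, taking the 665/620 nm ratio with background subtracted and expressed relative to DMSO-treated cells. DC50 came from four-parameter nonlinear regression.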

[2] = molecular target: T2, Aiolos (Homo sapiens, UniProt Q96SW2+Q9UKT9); assay: Aiolos degradation flow cytometry assay in human PBMCs (T cells); assay type: cell-based; conditions: 24 hours, T cells (CD3+CD20-), read-out: Aiolos T Cell DC50
T2 construct: Frozen human peripheral blood mononuclear cells (PBMCs) were thawed and treated with DMSO or compound for 24 hours; endogenous in cells; host or cells: human PBMCs (T cells gated CD3+CD20-)
T2 sequence (Q9UKT9 whole entry): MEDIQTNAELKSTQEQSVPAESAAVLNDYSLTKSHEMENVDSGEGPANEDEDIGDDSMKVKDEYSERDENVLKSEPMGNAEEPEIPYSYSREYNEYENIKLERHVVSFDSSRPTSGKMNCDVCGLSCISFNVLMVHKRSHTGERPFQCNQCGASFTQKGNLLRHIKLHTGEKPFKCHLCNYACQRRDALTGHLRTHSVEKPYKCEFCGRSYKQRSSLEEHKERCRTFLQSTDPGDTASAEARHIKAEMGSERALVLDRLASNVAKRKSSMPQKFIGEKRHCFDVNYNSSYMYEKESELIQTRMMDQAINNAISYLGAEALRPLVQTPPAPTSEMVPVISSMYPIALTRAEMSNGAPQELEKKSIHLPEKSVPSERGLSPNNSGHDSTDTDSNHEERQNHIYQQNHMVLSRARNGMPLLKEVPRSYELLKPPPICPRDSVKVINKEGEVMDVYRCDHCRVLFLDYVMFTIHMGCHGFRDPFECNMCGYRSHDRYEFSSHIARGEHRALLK
T2 sequence (Q96SW2 whole entry): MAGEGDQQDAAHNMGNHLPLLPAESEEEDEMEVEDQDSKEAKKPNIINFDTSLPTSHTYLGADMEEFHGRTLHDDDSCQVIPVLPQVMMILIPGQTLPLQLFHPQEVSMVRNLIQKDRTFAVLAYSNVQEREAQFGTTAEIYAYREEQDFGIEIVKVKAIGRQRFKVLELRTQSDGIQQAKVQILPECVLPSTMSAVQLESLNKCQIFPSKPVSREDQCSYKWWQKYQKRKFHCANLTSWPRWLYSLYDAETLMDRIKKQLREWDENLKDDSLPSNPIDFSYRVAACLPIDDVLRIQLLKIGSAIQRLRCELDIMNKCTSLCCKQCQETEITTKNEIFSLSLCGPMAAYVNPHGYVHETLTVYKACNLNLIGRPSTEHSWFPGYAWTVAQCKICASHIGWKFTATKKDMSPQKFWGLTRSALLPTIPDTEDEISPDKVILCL
T2 sequence (Q16531 whole entry partner): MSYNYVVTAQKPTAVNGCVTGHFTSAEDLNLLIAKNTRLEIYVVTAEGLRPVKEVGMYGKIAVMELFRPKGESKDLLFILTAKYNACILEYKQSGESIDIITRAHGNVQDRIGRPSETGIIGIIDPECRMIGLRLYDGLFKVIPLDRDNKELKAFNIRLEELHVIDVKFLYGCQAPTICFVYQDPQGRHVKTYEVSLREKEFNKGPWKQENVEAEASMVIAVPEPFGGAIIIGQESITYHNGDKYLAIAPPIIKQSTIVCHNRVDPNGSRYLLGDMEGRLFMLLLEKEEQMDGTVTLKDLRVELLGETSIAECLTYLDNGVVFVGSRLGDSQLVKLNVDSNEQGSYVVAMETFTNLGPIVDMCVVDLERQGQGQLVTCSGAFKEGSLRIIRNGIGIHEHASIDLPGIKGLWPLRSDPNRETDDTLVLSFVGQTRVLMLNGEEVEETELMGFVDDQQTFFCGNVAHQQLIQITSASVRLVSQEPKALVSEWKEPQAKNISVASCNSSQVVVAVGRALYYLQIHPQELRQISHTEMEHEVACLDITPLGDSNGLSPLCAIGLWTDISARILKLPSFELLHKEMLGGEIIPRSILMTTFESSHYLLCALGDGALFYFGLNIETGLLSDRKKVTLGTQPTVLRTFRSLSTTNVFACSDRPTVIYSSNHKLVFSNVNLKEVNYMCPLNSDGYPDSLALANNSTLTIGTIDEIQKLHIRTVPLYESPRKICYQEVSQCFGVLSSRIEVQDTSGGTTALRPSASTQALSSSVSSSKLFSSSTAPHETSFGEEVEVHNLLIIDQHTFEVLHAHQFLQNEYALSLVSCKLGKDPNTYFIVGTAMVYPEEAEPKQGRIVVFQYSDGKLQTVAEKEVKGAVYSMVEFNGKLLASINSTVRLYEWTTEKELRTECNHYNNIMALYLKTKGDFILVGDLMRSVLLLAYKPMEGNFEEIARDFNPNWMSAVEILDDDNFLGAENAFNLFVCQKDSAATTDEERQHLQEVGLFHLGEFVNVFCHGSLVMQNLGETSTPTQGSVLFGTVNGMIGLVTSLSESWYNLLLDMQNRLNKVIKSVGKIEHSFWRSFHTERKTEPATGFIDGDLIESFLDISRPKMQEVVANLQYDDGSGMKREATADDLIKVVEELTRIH
Description: Example 67: Aiolos Degradation Assay
Frozen human peripheral blood mononuclear cells (PBMCs) were thawed and treated with DMSO or compound for 24 hours and then fixed and permeabilized using a Foxp3/Transcription Factor Fixation/Permeabilization Kit (eBioscience, 00-5523). Cells were stained with fluorophore-conjugated antibodies against CD20 (Biolegend 302330), CD3 (BD Pharmingen 552127), and Aiolos (Biolegend 371106). An additional set of DMSO-treated PBMCs was stained for CD20, CD3, and an AlexaFluor 647-conjugated mouse IgG1 isotype control antibody (Biolegend 400136). Stained cells were analyzed using an Attune NxT Acoustic Focusing Flow Cytometer (Thermo-Fisher A29004), and data was analyzed using FlowJo (v10.5.3) and GraphPad Prism (v7.00) software. Single lymphocytes were gated for B cells (CD20+CD3−) and T cells (CD3+CD20−), and the geometric mean fluorescence intensity (MFI) of Aiolos was calculated for each population. The MFI of the isotype control was calculated for each population and used to quantify background staining. Percent Aiolos degradation was calculated for each compound-treated sample using the following equation: […]
Four-parameter non-linear regressions were performed in GraphPad Prism 7.02 to obtain DC50 values. Aiolos T Cell DC50 values are provided in Table 4, wherein A<10.0 nM, 10.0 nM≤B≤1000 nM, and 1000 nM<C.

T1 sequence (Q06187 whole entry): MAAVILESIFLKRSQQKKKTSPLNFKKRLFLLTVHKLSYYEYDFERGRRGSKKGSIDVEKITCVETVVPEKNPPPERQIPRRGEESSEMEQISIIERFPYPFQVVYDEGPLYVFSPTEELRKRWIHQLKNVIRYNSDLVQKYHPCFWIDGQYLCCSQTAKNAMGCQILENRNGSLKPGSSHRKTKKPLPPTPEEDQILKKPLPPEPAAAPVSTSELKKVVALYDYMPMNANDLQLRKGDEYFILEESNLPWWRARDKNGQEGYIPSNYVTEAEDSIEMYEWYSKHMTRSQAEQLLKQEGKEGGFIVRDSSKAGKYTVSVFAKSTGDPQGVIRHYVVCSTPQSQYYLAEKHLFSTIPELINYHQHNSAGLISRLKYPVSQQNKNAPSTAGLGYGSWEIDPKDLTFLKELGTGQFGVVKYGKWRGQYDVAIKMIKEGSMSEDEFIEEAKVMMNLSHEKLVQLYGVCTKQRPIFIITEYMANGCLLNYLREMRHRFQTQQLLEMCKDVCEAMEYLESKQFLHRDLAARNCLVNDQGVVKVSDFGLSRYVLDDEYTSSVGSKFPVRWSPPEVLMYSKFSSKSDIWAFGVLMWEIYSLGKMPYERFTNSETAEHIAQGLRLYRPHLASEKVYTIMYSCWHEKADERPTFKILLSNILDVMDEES

Row | Compound | DC50 [1] [nM] | DC50 [2] [nM]
1 | CN1CCN([C@@H]2CCCN(c3cnc(C(N)=O)c(Nc4ccc(C5(C)CCN(C(=O)CCOCCC(=O)Nc6cccc7c6CN(C6CCC(=O)NC6=O)C7=O)CC5)cc4)n3)C2)C1=O (some centres unmarked) [Compound 14] | > 15 | > 1000
2 | CN1CCN([C@@H]2CCCN(c3cnc(C(N)=O)c(Nc4ccc(N5CCN(CCCCc6cccc7c6CN(C6CCC(=O)NC6=O)C7=O)CC5)cc4)n3)C2)C1=O (some centres unmarked) [Compound 17] | < 5 | 10 to 1000
3 | CN1CCN([C@@H]2CCCN(c3cnc(C(N)=O)c(Nc4ccc(C5CCN(C(=O)CCOCCNc6cccc7c6C(=O)N(C6CCC(=O)NC6=O)C7=O)CC5)cc4)n3)C2)C1=O (some centres unmarked) [Compound 25] | 5 to 15 | < 10
4 | CN1CCN([C@@H]2CCCN(c3cnc(C(N)=O)c(Nc4ccc(N5CCC6(CCCN(c7ccc8c(c7)C(=O)N(C7CCC(=O)NC7=O)C8=O)C6)CC5)cc4)n3)C2)C1=O (some centres unmarked) [Compound 29] | < 5 | > 1000
5 | CN1CCN([C@@H]2CCCN(c3cnc(C(N)=O)c(Nc4ccc5c(c4)CCN(C4CN(c6ccc7c(c6)C(=O)N(C6CCC(=O)NC6=O)C7=O)C4)C5)n3)C2)C1=O (some centres unmarked) [Compound 30] | 5 to 15 | < 10
6 | CN1CCN([C@@H]2CCCN(c3cnc(C(N)=O)c(Nc4ccc5c(c4)CCN(CC4CCN(c6ccc7c(c6)C(=O)N(C6CCC(=O)NC6=O)C7=O)CC4)C5)n3)C2)C1=O (some centres unmarked) [Compound 31] | < 5 | 10 to 1000
7 | CN1CCN([C@@H]2CCCN(c3cnc(C(N)=O)c(Nc4ccc(C5CCN(C(=O)COc6cccc7c6C(=O)N(C6CCC(=O)NC6=O)C7=O)CC5)cc4)n3)C2)C1=O (some centres unmarked) [Compound 158] | 5 to 15 | –
8 | NC(=O)c1ncc(N2CCC(C(=O)O)CC2)nc1Nc1ccc(C2CCN(C[C@H]3CCN(c4ccc5c(c4)C(=O)N(C4CCC(=O)NC4=O)C5=O)C3)CC2)cc1 (some centres unmarked) [Compound 159] | 5 to 15 | –
9 | NC(=O)c1ncc(N2CCC(CO)CC2)nc1Nc1ccc(C2CCN(C[C@@H]3CCN(c4ccc5c(c4)C(=O)N(C4CCC(=O)NC4=O)C5=O)C3)CC2)cc1 (some centres unmarked) [Compound 160] | < 5 | –
10 | NC(=O)c1ncc(N2CCOCC2)nc1Nc1ccc(C2CCN(C[C@H]3CCN(c4ccc5c(c4)C(=O)N(C4CCC(=O)NC4=O)C5=O)C3)CC2)cc1 (some centres unmarked) [Compound 161] | 5 to 15 | –
11 | NC(=O)c1ncc(N2CCC2)nc1Nc1ccc(C2CCN(C[C@H]3CCN(c4ccc5c(c4)C(=O)N(C4CCC(=O)NC4=O)C5=O)C3)CC2)cc1 (some centres unmarked) [Compound 162] | < 5 | –
12 | NC(=O)c1ncc(N2CCCCC2)nc1Nc1ccc(C2CCN(CC3CCN(c4ccc5ccn(C6CCC(=O)NC6=O)c(=O)c5c4)CC3)CC2)cc1 (centres unmarked) [Compound 163] | < 5 | –
13 | NC(=O)c1ncc(N2CCCCC2)nc1Nc1ccc(C2CCN(CC3CCN(c4ccc(OC5CCC(=O)NC5=O)cn4)CC3)CC2)cc1 (centres unmarked) [Compound 164] | 5 to 15 | –
14 | CN1CCN([C@@H]2CCCN(c3cnc(C(N)=O)c(Nc4ccc(C5CCN(CC6CCN(c7ccc(OC8CCC(=O)NC8=O)cn7)CC6)CC5)cc4)n3)C2)C1=O (some centres unmarked) [Compound 165] | 5 to 15 | –
15 | NC(=O)c1ncc(N2CCCCC2)nc1Nc1ccc(C2CCN(CC3CCN(c4ccc(NC5CCC(=O)NC5=O)cn4)CC3)CC2)cc1 (centres unmarked) [Compound 167] | > 15 | –
16 | NC(=O)c1ncc(N2CCC[C@@H](N3CCCC3=O)C2)nc1Nc1ccc(N2CC(C3CCN(c4ccc5c(c4)C(=O)N(C4CCC(=O)NC4=O)C5=O)CC3)C2)nc1 (some centres unmarked) [Compound 168] | < 5 | –
17 | NC(=O)c1ncc(N2CCC[C@@H](N3CCCC3=O)C2)nc1Nc1ccc(N2CC(C3CCN(c4ccc5c(c4)C(=O)N(C4CCC(=O)NC4=O)C5=O)CC3)C2)cc1 (some centres unmarked) [Compound 169] | < 5 | –
18 | NC(=O)c1ncc(N2CCC[C@@H](CO)C2)nc1Nc1ccc(C2CCN(CC3CCN(c4ccc(NC5CCC(=O)NC5=O)cn4)CC3)CC2)cc1 (some centres unmarked) [Compound 170] | < 5 | –
19 | NC(=O)c1ncc(N2CCC[C@@H](CO)C2)nc1Nc1ccc(C2CCN(CC3CCN(c4ccc(OC5CCC(=O)NC5=O)cn4)CC3)CC2)cc1 (some centres unmarked) [Compound 171] | < 5 | –
20 | NC(=O)c1ncc(N2CCC[C@@H](CO)C2)nc1Nc1ccc(C2CCN(CC3CCN(c4ccc5c(=O)n(C6CCC(=O)NC6=O)ccc5c4)CC3)CC2)cc1 (some centres unmarked) [Compound 172] | < 5 | –
21 | NC(=O)c1ncc(N2CCC[C@@H](CO)C2)nc1Nc1ccc(C2CCN(CC3CCN(c4ccc(C(=O)NC5CCC(=O)NC5=O)nc4)CC3)CC2)cc1 (some centres unmarked) [Compound 173] | < 5 | –

Row | Compound | DC50 [1] [nM] | DC50 [2] [nM]
22 | NC(=O)c1ncc(N2CCC[C@@H](CO)C2)nc1Nc1ccc(C2CCN(C[C@H]3CCN(c4ccc5c(c4)C(=O)N(C4CCC(=O)NC4=O)C5=O)C3)CC2)cc1 (some centres unmarked) [Compound 174] | < 5 | –
23 | NC(=O)c1ncc(N2CCC(F)(F)C(CO)C2)nc1Nc1ccc(C2CCN(C[C@H]3CCN(c4ccc5c(c4)C(=O)N(C4CCC(=O)NC4=O)C5=O)C3)CC2)cc1 (some centres unmarked) [Compound 175] | < 5 | –
24 | NC(=O)c1ncc(N2CCC3(COC3)C2)nc1Nc1ccc(C2CCN(C[C@H]3CCN(c4ccc5c(c4)C(=O)N(C4CCC(=O)NC4=O)C5=O)C3)CC2)cc1 (some centres unmarked) [Compound 176] | < 5 | –
25 | NC(=O)c1ncc(N2CCCC3(COC3)C2)nc1Nc1ccc(C2CCN(CC3CCN(c4ccc5c(=O)n(C6CCC(=O)NC6=O)ccc5c4)CC3)CC2)cc1 (centres unmarked) [Compound 177] | < 5 | –
26 | Cn1c(-c2ccc(N3CCC(CN4CCC(c5ccc(Nc6nc(N7CCCC8(COC8)C7)cnc6C(N)=O)cc5)CC4)CC3)cc2)nn(C2CCC(=O)NC2=O)c1=O (centres unmarked) [Compound 178] | 5 to 15 | –
27 | Cn1c(=O)n(C2CCC(=O)NC2=O)c2ccc(N3CCC(CN4CCC(c5ccc(Nc6nc(N7CCCCC7)cnc6C(N)=O)cc5)CC4)CC3)cc21 (centres unmarked) [Compound 179] | < 5 | –
28 | CN1CCN([C@@H]2CCCN(c3cnc(C(N)=O)c(Nc4ccc(C5CCN(CC6CCN(c7ccc(N(C)C8CCC(=O)NC8=O)cn7)CC6)CC5)cc4)n3)C2)C1=O (some centres unmarked) [Compound 180] | > 15 | –
29 | CN(c1ccc(N2CCC(CN3CCC(c4ccc(Nc5nc(N6CCCCC6)cnc5C(N)=O)cc4)CC3)CC2)nc1)C1CCC(=O)NC1=O (centres unmarked) [Compound 181] | 5 to 15 | –
30 | NC(=O)c1ncc(N2CCCCC2)nc1Nc1ccc(C2CCN(CC3CCN(c4ccc(C(=O)NC5CCC(=O)NC5=O)nc4)CC3)CC2)cc1 (centres unmarked) [Compound 182] | < 5 | –
31 | CNC(C)C(=O)N[C@H](C(=O)N1C[C@@H](NC(=O)CCOCCOCCOCCOCCC(=O)N2CCC(c3ccc(Nc4nc(N5CCC[C@@H](N6CCN(C)C6=O)C5)cnc4C(N)=O)cc3)CC2)C[C@H]1C(=O)N[C@@H]1CCCc2ccccc21)C1CCCCC1 (some centres unmarked) [Compound 183] | > 15 | –
32 | CN1CCN([C@@H]2CCCN(c3cnc(C(N)=O)c(Nc4ccc(C5CCN(C(=O)CNc6cccc7c6C(=O)N(C6CCC(=O)NC6=O)C7=O)CC5)cc4)n3)C2)C1=O (some centres unmarked) [Compound 184] | 5 to 15 | –
33 | NC(=O)c1ncc(N2CCCCC2)nc1Nc1ccc(C2CCN(CC3CCN(c4ccc(CC5CCC(=O)NC5=O)cn4)CC3)CC2)cc1 (centres unmarked) [Compound 185] | > 15 | –
34 | Cc1ncsc1-c1ccc(CNC(=O)[C@@H]2C[C@@H](O)CN2C(=O)[C@@H](NC(=O)C2(F)CC2)C(C)(C)C)c(OCCCCCCCC(=O)N2CCC(c3ccc(Nc4nc(N5CCC[C@@H](N6CCN(C)C6=O)C5)cnc4C(N)=O)cc3)CC2)c1 [Compound 186] | > 15 | –
35 | Cc1ncsc1-c1ccc(CNC(=O)[C@@H]2C[C@@H](O)CN2C(=O)[C@@H](NC(=O)C2(F)CC2)C(C)(C)C)c(OCCCCCC(=O)N2CCC(c3ccc(Nc4nc(N5CCC[C@@H](N6CCN(C)C6=O)C5)cnc4C(N)=O)cc3)CC2)c1 [Compound 187] | > 15 | –
36 | Cc1ncsc1-c1ccc([C@H](C)NC(=O)[C@@H]2C[C@@H](O)CN2C(=O)[C@@H](NC(=O)CCCCCCCC(=O)N2CCC(c3ccc(Nc4nc(N5CCC[C@@H](N6CCN(C)C6=O)C5)cnc4C(N)=O)cc3)CC2)C(C)(C)C)cc1 [Compound 188] | > 15 | –
37 | Cc1ncsc1-c1ccc([C@H](C)NC(=O)[C@@H]2C[C@@H](O)CN2C(=O)[C@@H](NC(=O)CCCCCC(=O)N2CCC(c3ccc(Nc4nc(N5CCC[C@@H](N6CCN(C)C6=O)C5)cnc4C(N)=O)cc3)CC2)C(C)(C)C)cc1 [Compound 189] | > 15 | –
38 | CN1CCN([C@@H]2CCCN(c3cnc(C(N)=O)c(Nc4ccc(C5CCN(CC6CCN(c7ccc(CC8CCC(=O)NC8=O)cn7)CC6)CC5)cc4)n3)C2)C1=O (some centres unmarked) [Compound 190] | 5 to 15 | –
39 | NC(=O)c1ncc(N2CCCCC2)nc1Nc1ccc(C2CCN(CC3CCN(c4ncc(C(=O)NC5CCC(=O)NC5=O)o4)CC3)CC2)cc1 (centres unmarked) [Compound 191] | 5 to 15 | –
40 | CN1CCN([C@@H]2CCCN(c3cnc(C(N)=O)c(Nc4ccc(C5CCN(CC6CCN(c7ncc(C(=O)NC8CCC(=O)NC8=O)o7)CC6)CC5)cc4)n3)C2)C1=O (some centres unmarked) [Compound 192] | < 5 | –
41 | NC(=O)c1ncc(N2CCC[C@@H](CO)C2)nc1Nc1ccc(C2CCN(C[C@@H]3CCN(c4ccc5c(c4)C(=O)N(C4CCC(=O)NC4=O)C5=O)C3)CC2)cc1 (some centres unmarked) [Compound 193] | < 5 | –
